Measurements as given in ChEMBL document CHEMBL3046795, “Antifeedant activity of plant extracts and of new natural diglyceride compounds isolated from Ajuga pseudoiva leaves against Spodoptera littoralis larvae” (2001).

Key:
Type in all cases: functional
[1] = test system: Spodoptera littoralis; experiment: Antifeedant activity against Spodoptera littoralis measured at 50 mg/l after 8 to 24 hr by behavioral bioassay
[2] = test system: Spodoptera littoralis; experiment: Antifeedant activity against Spodoptera littoralis measured at 1 mg/l after 8 to 24 hr by behavioral bioassay
[3] = test system: Spodoptera littoralis; experiment: Antifeedant activity against Spodoptera littoralis measured at 100 mg/l after 8 to 24 hr by behavioral bioassay
[4] = test system: Spodoptera littoralis; experiment: Antifeedant activity against Spodoptera littoralis measured at 10 mg/l after 8 to 24 hr by behavioral bioassay

**Q.** What does the source list for `CCCCCCCCCCCCCC(O)CC(=O)OC` (stereo not drawn) [3-HYDROXYHEXADECANOIC ACID METHYL ESTER]?
**A.** AFI [1]: 32%; AFI [2]: -3.5%; AFI [3]: 45%; AFI [4]: 9.1%

**Q.** Which results are given for `C=C(C)[C@@H](CC)CC[C@@H](C)[C@H]1CC[C@H]2[C@@H]3CC=C4C[C@@H](O)CC[C@]4(C)[C@H]3CC[C@]12C` [CLEROSTEROL]?
**A.** AFI [1]: -15.3%; AFI [3]: 3.3%

**Q.** For `C=C(C)[C@@H](CC)CC[C@@H](C)[C@H]1CC[C@H]2[C@@H]3CC=C4C[C@@H](OC(=O)CCC)CC[C@]4(C)[C@H]3CC[C@]12C` [MIGHAVIDE], which AFI [1] is on record?
**A.** -0.5%

**Q.** And the AFI [3]?
**A.** 10.3%
